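Results reflect a 48-hour exposure of cells in 96-well plates to compound at five concentrations. At the GI50, growth is halved.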 Active and inactive are the calls of the source. No stated cut-off is given here; in the data, active = GI50 up to about 1.1 µM and inactive = higher.
Key:
Test in all cases: NCI tumour cell line growth inhibition, 48 h
[1] = tested on: MOLT-4
[2] = tested on: DU-145
[3] = tested on: EKVX
[4] = tested on: UO-31
[5] = tested on: SK-MEL-5
[6] = tested on: UACC-257
[7] = tested on: TK-10
[8] = tested on: SK-MEL-2
[9] = tested on: MCF7
[10] = tested on: LOX IMVI
[11] = tested on: HT-29
[12] = tested on: OVCAR-3
[13] = tested on: K562
[14] = tested on: NCI/ADR-RES
[15] = tested on: MDA-N
[16] = tested on: RPMI-8226
[17] = tested on: NCI-H23
[18] = tested on: CAKI-1
[19] = tested on: SF-295
[20] = tested on: SF-539

COc1ccc2c(c1O)[C@@]13C=C(O)C(=O)C=C1[C@@H](C2)N(C)CC3
GI50 [1]: 36.1 µM (inactive) | GI50 [2]: 56.9 µM (inactive) | GI50 [3]: > 100 µM (inactive) | GI50 [4]: 51.9 µM (inactive) | GI50 [5]: 60.3 µM (inactive) | GI50 [6]: 43 µM (inactive) | GI50 [7]: > 100 µM (inactive) | GI50 [8]: 47.9 µM (inactive) | GI50 [9]: 65.2 µM (inactive) | GI50 [10]: 31.6 µM (inactive) | GI50 [11]: 31.6 µM (inactive) | GI50 [12]: 26.9 µM (inactive) | GI50 [13]: > 100 µM (inactive) | GI50 [14]: 51.9 µM (inactive) | GI50 [15]: 47 µM (inactive) | GI50 [16]: > 100 µM (inactive) | GI50 [17]: 57.4 µM (inactive) | GI50 [18]: 88.5 µM (inactive) | GI50 [19]: > 100 µM (inactive)

CSc1nc(SC)c2c(CN=[N+]=[N-])c(Br)n(Cc3ccccc3)c2n1
GI50 [1]: > 100 µM (inactive) | GI50 [2]: > 100 µM (inactive) | GI50 [3]: > 100 µM (inactive) | GI50 [4]: > 100 µM (inactive) | GI50 [5]: > 100 µM (inactive) | GI50 [7]: > 100 µM (inactive) | GI50 [8]: > 100 µM (inactive) | GI50 [9]: > 100 µM (inactive) | GI50 [10]: 66.1 µM (inactive) | GI50 [11]: 23 µM (inactive) | GI50 [20]: 32.8 µM (inactive) | GI50 [12]: > 100 µM (inactive) | GI50 [14]: > 100 µM (inactive) | GI50 [15]: 99.3 µM (inactive) | GI50 [16]: > 100 µM (inactive) | GI50 [17]: > 100 µM (inactive) | GI50 [18]: > 100 µM (inactive) | GI50 [19]: 36.1 µM (inactive)

CSCCC(NC(c1ccccc1)c1ccccc1)[PH](=O)O (stereo not drawn)
GI50 [1]: > 100 µM (inactive) | GI50 [2]: > 100 µM (inactive) | GI50 [3]: > 100 µM (inactive) | GI50 [4]: > 100 µM (inactive) | GI50 [5]: > 100 µM (inactive) | GI50 [6]: > 100 µM (inactive) | GI50 [7]: > 100 µM (inactive) | GI50 [8]: > 100 µM (inactive) | GI50 [9]: > 100 µM (inactive) | GI50 [10]: > 100 µM (inactive) | GI50 [11]: > 100 µM (inactive) | GI50 [12]: > 100 µM (inactive) | GI50 [13]: > 100 µM (inactive) | GI50 [14]: > 100 µM (inactive) | GI50 [15]: 10 µM (inactive) | GI50 [16]: > 100 µM (inactive) | GI50 [17]: > 100 µM (inactive) | GI50 [18]: > 100 µM (inactive) | GI50 [19]: > 100 µM (inactive)

OC1c2ccccc2CCC1CN1CCN(CCOC(c2ccc(F)cc2)c2ccc(F)cc2)CC1 (stereo not drawn)
GI50 [1]: 8.83 µM (inactive) | GI50 [2]: 21 µM (inactive) | GI50 [5]: 4.79 µM (inactive) | GI50 [6]: 14.7 µM (inactive) | GI50 [7]: 17 µM (inactive) | GI50 [8]: 16.6 µM (inactive) | GI50 [9]: 14.5 µM (inactive) | GI50 [10]: 13.8 µM (inactive) | GI50 [20]: 0.186 µM (active) | GI50 [12]: 17.4 µM (inactive) | GI50 [13]: 2.94 µM (inactive) | GI50 [14]: 11.2 µM (inactive) | GI50 [15]: 15.8 µM (inactive) | GI50 [16]: 5.77 µM (inactive) | GI50 [17]: 14.5 µM (inactive) | GI50 [18]: 25.1 µM (inactive) | GI50 [19]: 18 µM (inactive)
